Experiments:
M-NSF-60 = assay: Proliferation of M-NSF-60 cells with M-CSF (CCK-8, 72 hours); assay type: cell-based, mouse; details: Mus musculus; M-CSF 50 ng/ml in medium, 72 hours incubation, CCK-8; read-out: M-NSF-60 (GI50/μM)
Protocol: The incubated cells were detected by CCK-8 (purchased from MedChem Express, China) cell viability detection kit (CCK-8 can be reduced by dehydrogenases in living cells to a highly water-soluble yellow formazan product, and the amount of the generated formazan product is proportional to the number of living cells). The number of living cells was quantified by a microplate reader, and the GI50 for each compound was calculated (the results are shown in Table 2).

4T1 cells = assay: In vivo efficacy in 4T1 cell tumor transplantation mouse model; details: 4T1 model
Protocol: In this example, the experimental effects of Compound 2 and the control compound PLX3397 (purchased from MedChem Express, China) in MC38 and 4T1 mouse models were tested respectively.
The experimental procedure was as follows: • (1) C57BL/6J male mice for use as MC38 transplanted tumor model and Balb/c male mice for use as 4T1 transplanted tumor model, which were 6 weeks old, were purchased from GemPharmatech Co., Ltd, Jiangsu. All the above mice were raised in an SPF laboratory, and the drinking water and padding had been sterilized by high pressure sterilization. All operations related to mice were performed under sterile conditions. • (2) On day 0, approximately 1×10^6 MC38 cells (purchased from ATCC) were injected subcutaneously into the left back of each of the C57BL/6J mice, and approximately 1×10^6 4T1 cells (purchased from ATCC) were injected subcutaneously into the left back of each of the Balb/c mice. • (3) For the MC38 mouse model, starting from the 6th day, the corresponding mice were orally administered with methylcellulose (HKI) (purchased from China National Pharmaceutical Group Corporation) solvent once a day (5 mice); Compound 2 at a dose of 50 mg/kg mouse weight once a day (5 mice); PLX3397 at a dose of 50 mg/kg mouse weight once a day (5 mice). For the 4T1 mouse model, starting from the 6th day, the corresponding mice were orally administered with 10% HS-15 (purchased from BASF, Germany) solvent (5 mice); Compound 2 at a dose of 50 mg/kg mouse weight once a day (5 mice); PLX3397 at a dose of 50 mg/kg mouse weight once a day (5 mice). • (4) Starting from the 6th day, the length/width of the subcutaneous tumor was measured with a vernier caliper every day, and the weight of the mice was recorded every day to determine the effects of Compound 2 and control compound PLX3397 on the weight of mice in different model mice. The results are shown in FIGS. 3 and 6. • (5) The growth trends of subcutaneous tumors in mice of different models were statistically analyzed. The tumor volume was calculated using the following method: length×width×width/2 mm^3. The results are shown in FIGS. 4 and 7. • (6) Isolation of tumor-infiltrating lymphocytes: Tumor tissue was first minced (tissue block less than 1 mm^3) with a surgical blade, resuspended in 6 ml of digestion solution (collagenase IV and 0.005% DNaseI enzyme, both purchased from Sigma, USA), and the mixture was transferred to a 15-ml centrifuge tube. The centrifuge tube was then placed in a shaker at 37° C. and digested with shaking at 220 r/min for 2 hours. The cells were sieved through a 200-mesh sieve and collected in a 50-ml centrifuge tube, and centrifuged at 1500 rpm for 10 minutes. The supernatant was then discarded, and 10 ml of DMEM medium (10% FBS) (purchased from GIBCO, USA) was added to the tube to terminate the digestion. The tube was placed in a centrifuge, and centrifuged at 1500 rpm for another 10 minutes. The supernatant was discarded. At the same time, Percoll separation solution (purchased from Millipore, USA) was prepared, and 90% Percoll separation working solution was prepared using 10×PBS. To a 15 ml centrifuge tube, 3-4 ml of 70% Percoll separation solution was added. The cells were resuspended in 4 ml of 40% Percoll separation solution, and the cell mixture was added to the 70% Percoll separation solution. The centrifuge tube was placed in a centrifuge and subjected to density gradient centrifugation at 25° C., 1260 g, for 30 minutes (speed up 5, speed down 0). After the centrifugation, the centrifuge tube was placed on a centrifuge tube rack, the middle leukocyte layer was aspirated with a pipette, and added to 10 ml of PBS, they were mixed well and placed in a centrifuge, and centrifuged at 1500 rpm. The cell supernatant was discarded after 10 min and the cells were resuspended in 5 ml of PBS, centrifuged at 1500 rpm for another 10 min, and the washing process was repeated once. The cells obtained were leukocytes in the tumor tissue. […]

RAW264.7 cells [1] = assay: Cell transformation experiment: CD86 RNA level in M2-induced RAW264.7 cells (qPCR); assay type: cell-based, mouse
Protocol: (§1) RAW264.7 cells (purchased from ATCC, USA) were sucked up and down with a pipette, and the cells were added to a centrifuge tube, placed in a centrifuge, and centrifuged at 800 rpm for 4 minutes.
In this experiment, an RNA extraction kit (purchased from Tiangen Biochemical Technology, China, catalog number: DP451) was used. RNA extraction was performed according to the instructions, and the concentration of RNA in the sample was detected using a NanoDrop nucleic acid concentration meter, and the RNA solution was diluted to the same concentration.
In this experiment, TakaRa One Step TB Green® PrimeScript™ PLUS RT-PCR Kit (purchased from TaKaRa Bio, catalog number: RR096A) was used, which contained the following components:
The procedure was as follows: • (1) The PCR primers were taken out and placed on ice. The primer sequences used were as follows: […]
• (3) After the RT-PCR reaction reagents were prepared, they were mixed, and the mixture was dispensed into 8-Strip Tubes. 2 μL of RNA sample was added to the tube, the bottom of the tube was gently tapped to mix the solution, and the tube was centrifuged in a centrifuge for a while. • (4) The fluorescence quantitative PCR instrument was turned on. […] Roche analysis software LightCycler® 96 SW 1.1 was used to analyze the data, and the analyzed data was imported into Graphpad Prism7.0 for drawing.

RAW264.7 cells [2] = assay: Cell transformation experiment: IL-10 secretion of M2-induced RAW264.7 cells (ELISA); assay type: cell-based, mouse
Protocol: as §1

Compound: COc1cc2nccc(Oc3ccc(NC(=O)Cc4ccc(Cl)c(C(F)(F)F)c4)cc3)c2cc1OC [Example 2, N-(4-((6,7-dimethoxyquinolin-4-yl)oxy)phenyl)-2-(4-chloro-3-(trifluoromethyl)phenyl)-acetamide]
- GI50 (M-NSF-60): 0.03 µM
- toxicity (mouse body weight) (4T1 cells; 50 mg/kg oral once a day, FIG. 6): no obvious toxicity
- inhibition effect of mouse tumors (4T1 cells; 50 mg/kg oral once a day, FIG. 7): good inhibition effect of mouse tumors
- inhibitory effect on mouse tumors compared with PLX3397 (4T1 cells; 50 mg/kg oral once a day, as days of administration increased): superior to the effect of the control compound PLX3397
- proportion of M1 macrophages around the tumor versus solvent group (4T1 cells; 50 mg/kg oral, flow cytometry, FIG. 8): much higher than that in the solvent group
- proportion of M1 macrophages in the tumor microenvironment versus PLX3397 group (4T1 cells; same dose 50 mg/kg, FIG. 8): higher than that of the PLX3397 group
- effect on CD86 RNA level compared with positive controls (RAW264.7 cells [1]; 1 μM, same dose as PLX3397 and BLZ945, FIG. 2): better for Compound 2 at 1 μM than positive controls PLX3397 and BLZ945
- RNA level of CD86 (RAW264.7 cells [1]; RAW264.7 induced to M2, treated 72 hours, serial dilutions, FIG. 2): increased in a dose-dependent manner
- effect on IL-10 secretion compared with positive controls (RAW264.7 cells [2]; 1 μM, same dose as PLX3397 and BLZ945, FIG. 1): better for Compound 2 at 1 μM than positive controls PLX3397 and BLZ945
- level of IL-10 secretion in M2 macrophages (RAW264.7 cells [2]; RAW264.7 induced with IL-4 or IL-13, treated 72 hours, serial dilutions, FIG. 1): decreased in a dose-dependent manner

From patent US20250186452A1, “NOVEL USE OF QUINOLINE COMPOUND” (TARAPEUTICS SCIENCE INC., priority 2022, published 2025)
